Data taken from patent US12325696B2, “Indazole derivative, preparation method therefor, and pharmaceutical application thereof” (JIANGSU HENGRUI MEDICINE CO., LTD., priority 2019, dated 2025).

Key:
[1] = target: estrogen receptor ERα wild-type (Homo sapiens (Human), UniProt P03372); assay: Covalent modification of ERα wild-type LBD by high-resolution mass spectrometry; type: binding; details: after 24 hours; 2 μM protein, 10 μM compound, 4° C.
Description: The ligand binding domain (LBD, aa296-554) of estrogen receptor ERα wild-type and ERα Y537S mutant-type was expressed in E. coli and purified. 2 μM ERα wild-type or ERα Y537S mutant-type protein and 10 μM compound were added to a buffer solution containing 50 mM Tris-HCl, pH7.5, 150 mM NaCl, 1 mM TCEP and 5% glycerol and mixed well. The solution was incubated at 4° C. for 24 hours, followed by high-resolution mass spectrometry (Agilent Technologies, Agilent Q-tof 6530) assay. Alternatively, 1 μM ERα wild-type or ERα Y537S mutant-type protein and 3 μM compound were added to a buffer solution containing 50 mM Tris-HCl, pH7.5, 150 mM NaCl, 1 mM TCEP and 5% glycerol and mixed well. The solution was incubated at 37° C. for 15 minutes, followed by high-resolution mass spectrometry assay. In the mass spectrometry assay results, the peak whose molecular weight is the sum of the molecular weight of the protein and compound is the product of covalent modification. The percentage of covalent modification is obtained by calculating the ratio of […] to total protein.

[2] = test system: estrogen receptor reporter gene; assay: Inhibition of estrogen receptor reporter gene activity (ERE-luc luciferase) in MCF7/ERE-luc cells; type: cell-based; details: Homo sapiens, 0.1 nM β-estradiol, 20 hours, read-out: IC50 of inhibitory activity on the activity of the estrogen receptor reporter gene
Method in brief: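 MCF7 cells stably carrying ERE-driven luciferase, in charcoal-stripped serum medium, were stimulated with 0.1 nM β-estradiol plus compound (nine 10-fold dilutions from 10 μM) for 20 h at 37° C. ONE-Glo luminescence was read, and IC50 was fitted from signal versus log concentration.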

estrogen receptor ERα wild-type, sequence (P03372 296-554): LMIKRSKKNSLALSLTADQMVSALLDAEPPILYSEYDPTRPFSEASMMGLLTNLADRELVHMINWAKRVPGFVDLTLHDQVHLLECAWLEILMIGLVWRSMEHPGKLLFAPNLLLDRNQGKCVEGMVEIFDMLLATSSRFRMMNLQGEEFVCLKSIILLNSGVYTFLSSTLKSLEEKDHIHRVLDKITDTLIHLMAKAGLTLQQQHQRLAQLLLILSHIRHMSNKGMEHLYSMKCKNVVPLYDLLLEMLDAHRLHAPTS

| SMILES | Covalent modification effect on the estrogen receptor ERα wild-type [1] [%] | IC50 [2] [nM] |
| --- | --- | --- |
| O=C(/C=C/CNC1(COc2ccc(/C(=C(/CC(F)(F)F)c3ccccc3)c3ccc4[nH]nc(F)c4c3)cn2)CC1)N1CCOCC1 [Example 1, (E)-1-Morpholino-4-((1-(((5-((Z)-4,4,4-trifluoro-1-(3-fluoro-1H-indazol-5-yl)-2-phenylbut-1-en-1-yl)pyridin-2-yl)oxy)methyl)cyclopropyl)amino)but-2-en-1-one] | 97 | 1 |
| CN(C)C(=O)/C=C/CN1CCC[C@@H](Oc2ccc(/C(=C(/CC(F)(F)F)c3ccccc3)c3ccc4[nH]nc(F)c4c3)cn2)C1 [Example 14, (E)-N,N-Dimethyl-4-((R)-3-((5-((Z)-4,4,4-trifluoro-1-(3-fluoro-1H-indazol-5-yl)-2-phenylbut-1-en-1-yl)pyridin-2-yl)oxy)piperidin-1-yl)but-2-enamide] | 93 | 2 |
| O=C(/C=C/CN1CCC[C@@H](Oc2ccc(/C(=C(/CC(F)(F)F)c3ccccc3)c3ccc4[nH]nc(F)c4c3)cn2)C1)N1CCCC1 [Example 15, (E)-1-(Pyrrolidin-1-yl)-4-((R)-3-((5-((Z)-4,4,4-trifluoro-1-(3-fluoro-1H-indazol-5-yl)-2-phenylbut-1-en-1-yl)pyridin-2-yl)oxy)piperidin-1-yl)but-2-en-1-one] | 95 | 3 |
| CN(C)C(=O)/C=C/CNC1(COc2ccc(/C(=C(/CC(F)(F)F)c3ccccc3)c3ccc4[nH]nc(F)c4c3)cn2)CC1 [Example 39, (E)-N,N-Dimethyl-4-((1-(((5-((Z)-4,4,4-trifluoro-1-(3-fluoro-1H-indazol-5-yl)-2-phenylbut-1-en-1-yl)pyridin-2-yl)oxy)methyl)cyclopropyl)amino)but-2-enamide] | 97 | 2 |
| O=C(/C=C/CNC1(COc2ccc(/C(=C(/CC(F)(F)F)c3ccccc3)c3ccc4[nH]nc(F)c4c3)cn2)CC1)N1CC(O)C1 [Example 40, (E)-1-(3-Hydroxyazetidin-1-yl)-4-((1-(((5-((Z)-4,4,4-trifluoro-1-(3-fluoro-1H-indazol-5-yl)-2-phenylbut-1-en-1-yl)pyridin-2-yl)oxy)methyl)cyclopropyl)amino)but-2-en-1-one] | 96 | 2 |
| O=C(/C=C/CNC1(COc2ccc(/C(=C(/CC(F)(F)F)c3ccccc3)c3ccc4[nH]nc(F)c4c3)cn2)CC1)N1CC[C@H](O)C1 [Example 41, (E)-1-((S)-3-Hydroxypyrrolidin-1-yl)-4-((1-(((5-((Z)-4,4,4-trifluoro-1-(3-fluoro-1H-indazol-5-yl)-2-phenylbut-1-en-1-yl)pyridin-2-yl)oxy)methyl)cyclopropyl)amino)but-2-en-1-one] | 93 | 3 |
| O=C(/C=C/CNC1(COc2ccc(/C(=C(/CC(F)(F)F)c3ccccc3)c3ccc4[nH]nc(F)c4c3)cn2)CC1)N1CCO[C@@H](CO)C1 [Example 42, (E)-1-((R)-2-(Hydroxymethyl)morpholino)-4-((1-(((5-((Z)-4,4,4-trifluoro-1-(3-fluoro-1H-indazol-5-yl)-2-phenylbut-1-en-1-yl)pyridin-2-yl)oxy)methyl)cyclopropyl)amino)but-2-en-1-one] | – | 0.7 |
